From patent US8552002B2 (Novartis AG, priority 2004, dated 2013)

Key:
Type in all cases: biochemical
KDR = target: T1, KDR (Homo sapiens, UniProt P35968); experiment: Inhibitory activity against KDR (VEGF-R2), in vitro data of Examples 170 and 207; settings: 10 μM; Examples 1 to 169; read-out: KDR inhibition at 10 μM
T1 construct: expressed in transfected cells; host or cells: CHO cells
Procedure, shortened: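 KDR tyrosine phosphorylation detected by luminescence after overnight 4° C capture of 20 μg lysate protein with PY20:AP antibody. Lysates came from cells given compound for 2 h at 37° C, then final 20 ng/ml VEGF for 5 min; compound-free medium as control.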

FGFR3 (K650E) = target: T2, FGFR3 (K650E) (Homo sapiens, UniProt P22607, K650E); experiment: Recombinant GST-FGFR-3-K650E tyrosine kinase assay (33P into poly(Glu,Tyr)); settings: 10 μM; Examples 1 to 169; read-out: FGFR3 (K650E) inhibition at 10 μM
T2 construct: amino acids 411-806 of the cytoplasmic domain of human FGFR-3, N-terminally fused to GST; made in house; host or cells: Sf9 insect cells (baculovirus)

Tek = target: T3, Tek (Homo sapiens, UniProt Q02763); experiment: Recombinant GST-Tek (Tie-2) tyrosine kinase assay (33P into poly(Glu,Tyr)); settings: Examples 1 to 169
T3 construct: amino acids 773-1124 of the cytoplasmic kinase domain of human Tek, N-terminally fused to GST; made in house; host or cells: Sf9 insect cells (baculovirus)
Procedure, shortened: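 Read-out is filter-bound 33P in poly(Glu,Tyr) 4:1 (10 μg/mL) after 30 min at ambient temperature with 4.0 μM ATP. Enzyme: 150 ng human GST-Tek (aa 773-1124) from insect cells, in Tris pH 7.5 with Mn2+/Mg2+ and vanadate. IC50 fitted linearly over four concentrations, usually 0.01-10 μM.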

T2 sequence (P22607 411-806 K650E): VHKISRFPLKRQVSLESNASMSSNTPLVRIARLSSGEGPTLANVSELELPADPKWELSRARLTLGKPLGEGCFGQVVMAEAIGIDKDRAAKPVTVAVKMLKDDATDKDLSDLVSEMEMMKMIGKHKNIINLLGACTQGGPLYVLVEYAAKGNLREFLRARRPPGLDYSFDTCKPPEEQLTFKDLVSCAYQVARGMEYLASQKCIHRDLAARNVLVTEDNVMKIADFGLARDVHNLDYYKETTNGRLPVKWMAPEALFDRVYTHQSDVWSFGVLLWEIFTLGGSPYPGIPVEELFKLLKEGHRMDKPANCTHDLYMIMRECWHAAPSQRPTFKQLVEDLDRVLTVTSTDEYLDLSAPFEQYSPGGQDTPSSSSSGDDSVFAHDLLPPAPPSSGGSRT
T1 sequence (P35968 20-1356): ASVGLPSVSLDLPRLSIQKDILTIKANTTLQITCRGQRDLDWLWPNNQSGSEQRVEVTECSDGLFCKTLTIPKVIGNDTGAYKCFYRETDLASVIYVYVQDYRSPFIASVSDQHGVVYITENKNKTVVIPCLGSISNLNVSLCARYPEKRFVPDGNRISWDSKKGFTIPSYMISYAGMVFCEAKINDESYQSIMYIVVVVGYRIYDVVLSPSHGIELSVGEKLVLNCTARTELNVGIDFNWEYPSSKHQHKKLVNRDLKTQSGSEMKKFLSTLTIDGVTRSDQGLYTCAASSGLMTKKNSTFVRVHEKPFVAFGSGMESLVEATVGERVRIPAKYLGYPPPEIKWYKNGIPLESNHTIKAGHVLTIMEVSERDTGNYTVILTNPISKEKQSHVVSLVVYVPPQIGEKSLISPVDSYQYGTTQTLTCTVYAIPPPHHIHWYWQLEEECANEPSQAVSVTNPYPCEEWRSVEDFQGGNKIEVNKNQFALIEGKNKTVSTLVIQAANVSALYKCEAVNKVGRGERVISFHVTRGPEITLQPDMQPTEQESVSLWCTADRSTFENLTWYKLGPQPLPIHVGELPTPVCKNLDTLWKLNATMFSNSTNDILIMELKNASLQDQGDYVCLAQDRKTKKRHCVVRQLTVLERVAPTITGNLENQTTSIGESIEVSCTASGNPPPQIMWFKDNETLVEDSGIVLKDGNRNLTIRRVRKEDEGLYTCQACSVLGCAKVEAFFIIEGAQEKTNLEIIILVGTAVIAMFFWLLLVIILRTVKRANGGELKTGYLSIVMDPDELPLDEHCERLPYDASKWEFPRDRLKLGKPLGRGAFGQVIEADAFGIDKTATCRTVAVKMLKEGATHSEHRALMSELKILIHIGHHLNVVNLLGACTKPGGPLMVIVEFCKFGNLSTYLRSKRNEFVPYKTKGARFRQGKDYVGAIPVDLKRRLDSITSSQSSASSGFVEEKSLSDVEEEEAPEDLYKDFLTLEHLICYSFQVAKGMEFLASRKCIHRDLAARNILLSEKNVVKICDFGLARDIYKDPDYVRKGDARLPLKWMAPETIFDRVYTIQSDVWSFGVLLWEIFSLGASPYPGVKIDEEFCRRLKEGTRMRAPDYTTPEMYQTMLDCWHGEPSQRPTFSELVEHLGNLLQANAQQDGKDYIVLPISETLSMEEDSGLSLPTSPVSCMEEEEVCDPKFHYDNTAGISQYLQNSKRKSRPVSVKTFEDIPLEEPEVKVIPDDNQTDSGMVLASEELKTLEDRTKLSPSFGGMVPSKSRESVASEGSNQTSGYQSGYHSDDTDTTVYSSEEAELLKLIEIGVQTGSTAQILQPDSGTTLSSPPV
T3 sequence (Q02763 773-1124): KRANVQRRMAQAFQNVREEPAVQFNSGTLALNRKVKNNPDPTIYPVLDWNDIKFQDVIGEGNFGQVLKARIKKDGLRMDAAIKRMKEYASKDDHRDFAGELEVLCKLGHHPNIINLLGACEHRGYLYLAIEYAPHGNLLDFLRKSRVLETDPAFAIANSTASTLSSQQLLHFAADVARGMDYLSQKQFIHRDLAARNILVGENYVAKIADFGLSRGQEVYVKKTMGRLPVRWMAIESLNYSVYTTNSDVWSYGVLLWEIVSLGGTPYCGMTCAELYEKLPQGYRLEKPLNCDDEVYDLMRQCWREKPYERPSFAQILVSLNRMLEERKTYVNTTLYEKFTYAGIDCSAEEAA

Row | inhibition at 10 µM (KDR) | inhibition at 10 µM (FGFR3 (K650E)) | inhibition at 10 µM (Tek) | Structure (SMILES)
1 | 67 to 100% | 27 to 100% | 12 to 100% | COc1ccc(NC(=O)Nc2cc(Nc3cccc(N4CCN(C)CC4)c3)ncn2)cc1Cl [Example 25, 1-(3-Chloro-4-methoxy-phenyl)-3-{6-[3-(4-methyl-piperazin-1-yl)-phenyl-amino]-pyrimidin-4-yl}-urea]
2 | 67 to 100% | 27 to 100% | 12 to 100% | COc1cc(OC)c(Cl)c(NC(=O)Nc2cc(Nc3ccc(OCCN4CCCC4)cc3)ncn2)c1Cl [Example 155, 1-(2,6-Dichloro-3,5-dimethoxy-phenyl)-3-{6-[4-(2-pyrrolidin-1-yl-ethoxy)-phenylamino]-pyrimidin-4-yl}-urea]
3 | 67 to 100% | 27 to 100% | 12 to 100% | COc1ccc(Cl)c(NC(=O)Nc2cc(Nc3cccc(N4CCN(C)CC4)c3)ncn2)c1 [Example 29, 1-(2-Chloro-5-methoxy-phenyl)-3-{6-[3-(4-methyl-piperazin-1-yl)-phenyl-amino]-pyrimidin-4-yl}-urea]
4 | 67 to 100% | 27 to 100% | 12 to 100% | COc1cc(OC)c(Cl)c(NC(=O)N(C)c2cc(Nc3ccc(C)nc3C)ncn2)c1Cl [Example 153, 3-(2,6-Dichloro-3,5-dimethoxy-phenyl)-1-[6-(2,6-dimethyl-pyridin-3-ylamino)-pyrimidin-4-yl]-1-methyl-urea]
5 | 67 to 100% | 27 to 100% | 12 to 100% | CCN(CC)CCOc1ccc(Nc2cc(NC(=O)Nc3ccccc3Br)ncn2)cc1 [Example 101, 1-(2-Bromo-phenyl)-3-{6-[4-(2-diethylamino-ethoxy)-phenylamino]-pyrimidin-4-yl}-urea]
6 | 67 to 100% | 27 to 100% | 12 to 100% | COc1ccc(CN(C(=O)Nc2c(Cl)ccc(OC)c2Cl)c2cc(Nc3ccc(N4CCN(C)CC4)cc3)ncn2)cn1 [Example 63, 3-(2,6-Dichloro-3-methoxy-phenyl)-1-(6-methoxy-pyridin-3-ylmethyl)-1-{6-[4-(4-methyl-piperazin-1-yl)-phenylamino]-pyrimidin-4-yl}-urea]
7 | 67 to 100% | 27 to 100% | 12 to 100% | COc1ccc(C)c(NC(=O)Nc2cc(Nc3cccc(N4CCN(C)CC4)c3)ncn2)c1 [Example 27, 1-(5-Methoxy-2-methyl-phenyl)-3-{6-[3-(4-methyl-piperazin-1-yl)-phenyl-amino]-pyrimidin-4-yl}-urea]
8 | 67 to 100% | 27 to 100% | 12 to 100% | COc1cc(OC)c(Cl)c(NC(=O)N(C)c2cc(Nc3ccc(OCCCN4CCN(C)CC4)cc3)ncn2)c1Cl [Example 146, 3-(2,6-Dichloro-3,5-dimethoxy-phenyl)-1-methyl-1-(6-{4-[3-(4-methyl-piperazin-1-yl)-propoxy]-phenylamino}-pyrimidin-4-yl)-urea]
9 | 67 to 100% | 27 to 100% | 12 to 100% | CN(C)c1cccc(Nc2cc(N(C)C(=O)Nc3c(Cl)cccc3Cl)ncn2)c1 [Example 120, 3-(2,6-Dichloro-phenyl)-1-[6-(3-dimethylamino-phenylamino)-pyrimidin-4-yl]-1-methyl-urea]
10 | 67 to 100% | 27 to 100% | 12 to 100% | COc1cc(NC(=O)Nc2cc(Nc3cccc(N4CCN(C)CC4)c3)ncn2)cc(OC)c1OC [Example 15, 1-{6-[3-(4-Methyl-piperazin-1-yl)-phenylamino]-pyrimidin-4-yl}-3-(3,4,5-trimethoxy-phenyl)-urea]
11 | 67 to 100% | 27 to 100% | 12 to 100% | CN(C(=O)Nc1c(Cl)cccc1Cl)c1cc(Nc2ccc(C(C)(C)O)cc2)ncn1 [Example 111, 3-(2,6-Dichloro-Phenyl)-1-{6-[4-(1-hydroxy-1-methyl-ethyl)-phenylamino]-pyrimidin-4-yl}-1-methyl-urea]
12 | 67 to 100% | 27 to 100% | 12 to 100% | COc1ccc(Cl)cc1NC(=O)Nc1cc(Nc2ccc(N3CCN(C)CC3)cc2)ncn1 [Example 78, 1-(5-Chloro-2-methoxy-phenyl)-3-{6-[4-(4-methyl-piperazin-1-yl)-phenylamino]-pyrimidin-4-yl}-urea]
13 | 67 to 100% | 27 to 100% | 12 to 100% | Cc1cc(C)cc(NC(=O)Nc2cc(Nc3cccc(N4CCN(C)CC4)c3)ncn2)c1 [Example 23, 1-(3,5-Dimethyl-Phenyl)-3-{6-[3-(4-methyl-piperazin-1-yl)-phenyl-amino]-pyrimidin-4-yl}-urea]
14 | 67 to 100% | 27 to 100% | 12 to 100% | CCN1CCN(Cc2cccc(Nc3cc(N(C)C(=O)Nc4c(Cl)c(OC)cc(OC)c4Cl)ncn3)c2)CC1 [Example 150, 3-(2,6-Dichloro-3,5-dimethoxy-phenyl)-1-{6-[3-(4-ethyl-piperazin-1-ylmethyl)-phenylamino]-pyrimidin-4-yl}-1-methyl-urea]
15 | 67 to 100% | 27 to 100% | 12 to 100% | O=C(Nc1cc(Nc2ccc(OCCN3CCOCC3)cc2)ncn1)Nc1ccccc1Br [Example 97, 1-(2-Bromo-phenyl)-3-{6-[4-(2-morpholin-4-yl-ethoxy)-phenylamino]-pyrimidin-4-yl}-urea]
16 | 67 to 100% | 27 to 100% | 12 to 100% | CN(C)c1cccc(Nc2cc(NC(=O)Nc3c(F)cccc3F)ncn2)c1 [Example 106, 1-(2,6-Difluoro-phenyl)-3-[6-(3-dimethylamino-phenylamino)-pyrimidin-4-yl]-urea]
17 | 67 to 100% | 27 to 100% | 12 to 100% | CCN(CC)CCOc1ccc(Nc2cc(N(C)C(=O)Nc3c(Cl)c(OC)cc(OC)c3Cl)ncn2)cc1 [Example 152, 3-(2,6-Dichloro-3,5-dimethoxy-phenyl)-1-{6-[4-(2-diethylamino-ethoxy)-phenylamino]-pyrimidin-4-yl}-1-methyl-urea]
18 | 67 to 100% | 27 to 100% | 12 to 100% | CCN1CCN(c2ccc(Nc3cc(N(C)C(=O)Nc4c(Cl)c(OC)cc(OC)c4Cl)ncn3)cc2)CC1 [Example 145, 3-(2,6-Dichloro-3,5-dimethoxy-phenyl)-1-{6-[4-(4-ethyl-piperazin-1-yl)-phenylamino]-pyrimidin-4-yl}-1-methyl-urea]
19 | 67 to 100% | 27 to 100% | 12 to 100% | O=C(Nc1cc(Nc2ccc(N3CCOCC3)cc2)ncn1)Nc1c(F)cccc1F [Example 109, 1-(2,6-Difluoro-phenyl)-3-[6-(4-morpholin-4-yl-phenylamino)-pyrimidin-4-yl]-urea]
20 | 67 to 100% | 27 to 100% | 12 to 100% | CN(C(=O)Nc1cccc(C(F)(F)F)c1)c1cc(Nc2ccc(F)cc2)ncn1 [Example 121, 1-[6-(4-Fluoro-phenylamino)-pyrimidin-4-yl]-1-methyl-3-(3-trifluoro-methyl-phenyl)-urea]
21 | 67 to 100% | 27 to 100% | 12 to 100% | COc1cc(NC(=O)Nc2cc(Nc3ccc(N4CCN(C)CC4)cc3)ncn2)cc(OC)c1 [Example 18, 1-(3,5-Dimethoxy-phenyl)-3-{6-[4-(4-methyl-piperazin-1-yl)-phenyl-amino]-pyrimidin-4-yl}-urea]
22 | 67 to 100% | 27 to 100% | 12 to 100% | COc1ccc(NC(=O)Nc2cc(Nc3cccc(N4CCN(C)CC4)c3)ncn2)c(OC)c1 [Example 17, 1-(2,4-Dimethoxy-phenyl)-3-{6-[3-(4-methyl-piperazin-1-yl)-phenyl-amino]-pyrimidin-4-yl}-urea]
23 | 67 to 100% | 27 to 100% | 12 to 100% | CCN(C(=O)Nc1c(Cl)ccc(OC)c1Cl)c1cc(Nc2ccc(N3CCN(C)CC3)cc2)ncn1 [Example 59, 3-(2,6-Dichloro-3-methoxy-phenyl)-1-ethyl-1-{6-[4-(4-methyl-piperazin-1-yl)-phenylamino]-pyrimidin-4-yl}-urea]
24 | 67 to 100% | 27 to 100% | 12 to 100% | COc1cc(OC)c(Cl)c(NC(=O)Nc2cc(Nc3cccc(CN(C)C)c3)ncn2)c1Cl [Example 157, 1-(2,6-Dichloro-3,5-dimethoxy-phenyl)-3-[6-(3-dimethylaminomethyl-phenylamino)-pyrimidin-4-yl]-urea]
25 | 67 to 100% | 27 to 100% | 12 to 100% | O=C(Nc1cc(N[C@H]2CC[C@H](O)CC2)ncn1)Nc1c(Cl)cccc1Cl [Example 92, 1-(2,6-Dichloro-phenyl)-3-[6-((trans)-4-hydroxy-cyclohexylamino)-pyrimidin-4-yl]-urea]
26 | 67 to 100% | 27 to 100% | 12 to 100% | O=C(Nc1ccccc1)Nc1cc(Nc2cccc(Cl)c2)ncn1 [Example 141, 1-[6-(3-Chloro-phenylamino)-pyrimidin-4-yl]-3-phenyl-urea]
27 | 67 to 100% | 27 to 100% | 12 to 100% | COc1cc(NC(=O)Nc2cc(Nc3ccccc3)ncn2)c(Cl)c(OC)c1 [Example 39, 1-(2-Chloro-3,5-dimethoxy-phenyl)-3-(6-phenylamino-pyrimidin-4-yl)-urea]
